What was measured:
Type in all cases: binding, human
CXCR4 V112A + L41A = assay: 12G5 antibody competition, 293T cells transfected with CXCR4 V112A + L41A; details: IC50 on CXCR4 V112A + L41A relative to wt
Method: (§1) Fig. 4 The interactions of EPI-X4 and the EPI-X4 derivatives WSC02 and JM#21 with point-mutated CXCR4 were assessed by an antibody competition assay. Amino acid substitutions were introduced in the sequence of CXCR4 by site-directed mutagenesis, cloned into an IRES-eGFP expression vector, and transfected into 293 T cells. Afterward, cells were incubated with serially diluted EPI-X4 (a, b), WSC02 (c, d), or JM#21 (e, f) in presence of a constant concentration of CXCR4 specific antibody (clone 12G5). After 2 h, bound antibody was analyzed by flow cytometry. a, c, e) Representative dose-dependent replacement of 12G5 antibody by peptides. b, d, f) IC50 values were calculated by nonlinear regression. Shown are data derived from at least three individual experiments ± SEM. IC50 values were set to 1000 µM (EPI-X4 and WSC02) or 100 µM (JM#21) if the value exceeds the maximally used concentration. *p ≤ 0.05, ***p ≤ 0.001 (one-way ANOVA for comparison with wt). For IC50 values see Table 1. For all binding curves see also Fig. S8.
(§2) Mutated CXCR4 constructs were transfected into 293 T cells that have a very low endogenous expression level of wild-type CXCR4. Transfected cells were then analyzed for CXCR4 surface expression (Fig. S5a) and EPI-X4 binding using a flow cytometry-based antibody competition assay (Fig. S5b, c)[33]. […]

CXCR4 D97E + V112A = assay: 12G5 antibody competition, 293T cells transfected with CXCR4 D97E + V112A; details: IC50 on CXCR4 D97E + V112A relative to wt
Method: as §1, §2

CXCR4 D97E + V112L = assay: 12G5 antibody competition, 293T cells transfected with CXCR4 D97E + V112L; details: IC50 on CXCR4 D97E + V112L relative to wt
Method: as §1, §2

[1] = tested on: CXCR4 D97E + V112A + L41A; assay: 12G5 antibody competition, 293T cells transfected with CXCR4 D97E + V112A + L41A; details: IC50 on CXCR4 D97E + V112A + L41A relative to wt
Method: as §1, §2

CXCR4 V112L = assay: 12G5 antibody competition, 293T cells transfected with CXCR4 V112L; details: IC50 on CXCR4 V112L relative to wt
Method: as §1, §2

CXCR4 D97S = assay: 12G5 antibody competition, 293T cells transfected with CXCR4 D97S; details: IC50 on CXCR4 D97S relative to wt
Method: as §1, §2

CXCR4 E277A = assay: 12G5 antibody competition, 293T cells transfected with CXCR4 E277A; details: IC50 on CXCR4 E277A relative to wt
Method: as §1, §2

CXCR4 V112A = assay: 12G5 antibody competition, 293T cells transfected with CXCR4 V112A; details: IC50 on CXCR4 V112A relative to wt
Method: as §1, §2

Work on “IVRWSKKVPCVS [WSC02, first-generation C-terminally truncated 12-mer derivative of EPI-X4 with four substitutions]” yielded a Fold change (CXCR4 V112A + L41A) of 4, a Fold change (CXCR4 D97E + V112A) of 1.5 and a Fold change (CXCR4 D97E + V112L) of 1.8. It also gave a Fold change [1] of 5, a Fold change (CXCR4 V112L) of 0.4 and a Fold change (CXCR4 D97S) of 18. It also gave a Fold change (CXCR4 E277A) of 0.7 and a Fold change (CXCR4 V112A) of 0.6.
